From US20250281424A1 (New York Blood Center, Inc, priority 2020, published 2025)

Molecular target: T1, human PF4 (Homo sapiens, UniProt P02776)
T1 construct: PF4 is a 70 amino acid, lysine-rich 7.8 kDa platelet-specific protein; made in house; host or cells: Escherichia coli BL21DE3 pLysS (pT7-7) and/or Drosophila S2 cells
T1 sequence (P02776 32-101): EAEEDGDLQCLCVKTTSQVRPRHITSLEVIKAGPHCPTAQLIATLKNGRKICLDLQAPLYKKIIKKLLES
Assay: Inhibition of PF4 tetramer formation (BS3 cross-linking, SDS-PAGE)
Type: biochemical
Conditions: for inhibition at 5 µM: 5 μM inhibitor; for inhibition at 5 µM / inhibition at 10 µM / inhibition at 1 µM / inhibition at 3 µM: read-out: % inhibition of PF4 tetramer formation at single concentration of inhibitor; for inhibition at 10 µM: 10 μM inhibitor (column A); for IC50: read-out: IC50 of PF4 tetramer formation inhibition; for inhibition at 1 µM: 1 μM inhibitor; for inhibition at 3 µM: 3 μM inhibitor (column A)
How it was run: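 Recombinant human wild-type PF4 (E. coli-expressed, heparin-purified), 10 μg/ml in PBS, incubated with compound 15 min at 37° C or 60 min at room temperature, then cross-linked with 0.2 mM BS3 for 30 min at room temperature. Reducing 12% SDS-PAGE; bands quantified as % tetramer, trimer, dimer, monomer versus compound-free control.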

Row | SMILES | inhibition at 5 µM | inhibition at 10 µM | IC50 | inhibition at 1 µM | inhibition at 3 µM
1 | COC(=O)CCCC(=O)C1C(=O)c2ccc(-c3ccc4c(c3)C(=O)C(C(=O)CCCC(=O)OC)C4=O)cc2C1=O (centres unmarked) [Example 226, methyl 5-[2′-(5-methoxy-5-oxopentanoyl)-1,1′,3,3′-tetraoxo-1H,1′H,2H,2′H,3H,3′H-[5,5′-biinden]-2-yl]-5-oxopentanoate] | 77% | 92% | 4 µM |  | 
2 | O=C1c2ccc(S(=O)(=O)c3ccc4c(c3)C(=O)C(C(=O)C3CCCCC3)C4=O)cc2C(=O)C1C(=O)C1CCCCC1 (centres unmarked) [Example 288, 2-cyclohexanecarbonyl-5-[(2-cyclohexanecarbonyl-1,3-dioxo-2,3-dihydro-1H-inden-5-yl)sulfonyl]-2,3-dihydro-1H-indene-1,3-dione] |  |  | 3 µM | 10% | 15%
3 | CC(C)(C)OC(=O)N1C[C@@H]2[C@H](C1)[C@H]2C(=O)C1C(=O)c2ccc(-c3ccc4c(c3)C(=O)C(C(=O)[C@H]3[C@@H]5CN(C(=O)OC(C)(C)C)C[C@@H]53)C4=O)cc2C1=O (stereo partly drawn) [Example 216, tert-butyl (1R,5S,6R)-6-{2′-[(1R,5S,6R)-3-[(tert-butoxy)carbonyl]-3-azabicyclo[3.1.0]hexane-6-carbonyl]-1,1′,3,3′-tetraoxo-1H,1′H,2H,2′H,3H,3′H-[5,5′-biindene]-2-carbonyl}-3-azabicyclo[3.1.0]hexane-3-carboxylate] | 82% | 91% | 2.5 µM |  | 
4 | Cc1cccc(NC(=O)C2C(=O)c3ccc(C(=O)c4ccc5c(c4)C(=O)C(C(=O)Nc4cccc(C)c4)C5=O)cc3C2=O)c1 (centres unmarked) [Example 38, 5,5′-carbonylbis(1,3-dioxo-n-(m-tolyl)-2,3-dihydro-1h-indene-2-carboxamide)] | 74% | 88% | 1.07 µM |  | 
5 | O=C(c1ccc2c(c1)C(=O)C(C(=O)NC1CCS(=O)(=O)C1)C2=O)c1ccc2c(c1)C(=O)C(C(=O)NC1CCS(=O)(=O)C1)C2=O (centres unmarked) [Example 361, N-(1,1-dioxo-1λ^6-thiolan-3-yl)-5-{2-[(1,1-dioxo-1λ^6-thiolan-3-yl)carbamoyl]-1,3-dioxo-2,3-dihydro-1H-indene-5-carbonyl}-1,3-dioxo-2,3-dihydro-1H-indene-2-carboxamide] |  |  |  | 9% | 34%
6 | CC(C)(C)OC(=O)N1CC[C@@H](C(=O)C2C(=O)c3ccc(C(=O)c4ccc5c(c4)C(=O)C(C(=O)[C@@H]4CCN(C(=O)OC(C)(C)C)C4)C5=O)cc3C2=O)C1 (stereo partly drawn) [Example 123, tert-butyl (3R)-3-(5-{2-[(3R)-1-[(tert-butoxy)carbonyl]pyrrolidine-3-carbonyl]-1,3-dioxo-2,3-dihydro-1H-indene-5-carbonyl}-1,3-dioxo-2,3-dihydro-1H-indene-2-carbonyl)pyrrolidine-1-carboxylate] | 88% | 89% | 1.6 µM |  | 
7 | CCOC(=O)CCNC(=O)C1C(=O)c2ccc(C(=O)c3ccc4c(c3)C(=O)C(C(=O)NCCC(=O)OCC)C4=O)cc2C1=O (centres unmarked) [Example 27, 5,5′-carbonylbis(3-[(1,3-dioxo-indane-2-carbonyl)-amino]-propionic acid ethyl ester)] |  |  | 10.8 µM |  | 
8 | CC(C)(C)OC(=O)N1CCC[C@H]1C(=O)C1C(=O)c2ccc(C(c3ccc4c(c3)C(=O)C(C(=O)[C@@H]3CCCN3C(=O)OC(C)(C)C)C4=O)(C(F)(F)F)C(F)(F)F)cc2C1=O (stereo partly drawn) [Example 195, tert-butyl (2S)-2-[5-(2-{2-[(2S)-1-[(tert-butoxy)carbonyl]pyrrolidine-2-carbonyl]-1,3-dioxo-2,3-dihydro-1H-inden-5-yl}-1,1,1,3,3,3-hexafluoropropan-2-yl)-1,3-dioxo-2,3-dihydro-1H-indene-2-carbonyl]pyrrolidine-1-carboxylate] |  |  | 4 µM |  | 
9 | CC(C)(C)OC(=O)N1CCCC[C@H]1C(=O)C1C(=O)c2ccc(C(=O)c3ccc4c(c3)C(=O)C(C(=O)[C@@H]3CCCCN3C(=O)OC(C)(C)C)C4=O)cc2C1=O (stereo partly drawn) [Example 127, tert-butyl (2S)-2-(5-{2-[(2S)-1-[(tert-butoxy)carbonyl]piperidine-2-carbonyl]-1,3-dioxo-2,3-dihydro-1H-indene-5-carbonyl}-1,3-dioxo-2,3-dihydro-1H-indene-2-carbonyl)piperidine-1-carboxylate] |  |  | 1 µM |  | 
10 | O=C(O)CCNC(=O)C1C(=O)c2ccc(Oc3ccc4c(c3)C(=O)C(C(=O)NCCC(=O)O)C4=O)cc2C1=O (centres unmarked) [Example 305, 3-{[5-({2-[(2-carboxyethyl)carbamoyl]-1,3-dioxo-2,3-dihydro-1H-inden-5-yl}oxy)-1,3-dioxo-2,3-dihydro-1H-inden-2-yl]formamido}propanoic acid] |  |  |  | 13% | 50%
11 | O=C(Nc1cccc(Cl)c1)C1C(=O)c2ccc(S(=O)(=O)c3ccc4c(c3)C(=O)C(C(=O)Nc3cccc(Cl)c3)C4=O)cc2C1=O (centres unmarked) [Example 86, N-(3-chlorophenyl)-5-({2-[(3-chlorophenyl)carbamoyl]-1,3-dioxo-2,3-dihydro-1H-inden-5-yl}sulfonyl)-1,3-dioxo-2,3-dihydro-1H-indene-2-carboxamide] | 73% | 90% |  |  | 
12 | CC(=O)NCC(=O)C1C(=O)c2ccc(C(=O)c3ccc4c(c3)C(=O)C(C(=O)CNC(C)=O)C4=O)cc2C1=O (centres unmarked) [Example 181, N-(2-{5-[2-(2-acetamidoacetyl)-1,3-dioxo-2,3-dihydro-1H-indene-5-carbonyl]-1,3-dioxo-2,3-dihydro-1H-inden-2-yl}-2-oxoethyl)acetamide] | 86% | 96% | 1.6 µM |  | 
13 | CS(=O)(=O)N1CCC(NC(=O)C2C(=O)c3ccc(C(=O)c4ccc5c(c4)C(=O)C(C(=O)NC4CCN(S(C)(=O)=O)CC4)C5=O)cc3C2=O)CC1 (centres unmarked) [Example 365, N-(1-methanesulfonylpiperidin-4-yl)-5-{2-[(1-methanesulfonylpiperidin-4-yl)carbamoyl]-1,3-dioxo-2,3-dihydro-1H-indene-5-carbonyl}-1,3-dioxo-2,3-dihydro-1H-indene-2-carboxamide] |  |  | 3.39 µM | 27% | 63%
14 | CC(C)C[C@@H](N)C(=O)C1C(=O)c2ccc(S(=O)(=O)c3ccc4c(c3)C(=O)C(C(=O)[C@H](N)CC(C)C)C4=O)cc2C1=O (stereo partly drawn) [Example 355, 2-[(2R)-2-amino-4-methylpentanoyl]-5-({2-[(2R)-2-amino-4-methylpentanoyl]-1,3-dioxo-2,3-dihydro-1H-inden-5-yl}sulfonyl)-2,3-dihydro-1H-indene-1,3-dione] |  |  |  | 23% | 61%
15 | O=C1c2ccc(Oc3ccc4c(c3)C(=O)C(C(=O)C3CCCC3)C4=O)cc2C(=O)C1C(=O)C1CCCC1 (centres unmarked) [Example 251, 2-cyclopentanecarbonyl-5-[(2-cyclopentanecarbonyl-1,3-dioxo-2,3-dihydro-1H-inden-5-yl)oxy]-2,3-dihydro-1H-indene-1,3-dione] |  |  | 3 µM | 32% | 45%
16 | O=C(NC1CCS(=O)(=O)C1)C1C(=O)c2ccc(S(=O)(=O)c3ccc4c(c3)C(=O)C(C(=O)NC3CCS(=O)(=O)C3)C4=O)cc2C1=O (centres unmarked) [Example 360, N-(1,1-dioxo-1λ^6-thiolan-3-yl)-5-({2-[(1,1-dioxo-1λ^6-thiolan-3-yl)carbamoyl]-1,3-dioxo-2,3-dihydro-1H-inden-5-yl}sulfonyl)-1,3-dioxo-2,3-dihydro-1H-indene-2-carboxamide] |  |  |  | 23% | 59%
17 | COC(=O)CCCC(=O)C1C(=O)c2ccc(C(=O)c3ccc4c(c3)C(=O)C(C(=O)CCCC(=O)OC)C4=O)cc2C1=O (centres unmarked) [Example 225, methyl 5-{5-[2-(5-methoxy-5-oxopentanoyl)-1,3-dioxo-2,3-dihydro-1H-indene-5-carbonyl]-1,3-dioxo-2,3-dihydro-1H-inden-2-yl}-5-oxopentanoate] | 87% | 90% | 3.2 µM |  | 
18 | O=C(CN1CCCC1=O)C1C(=O)c2ccc(S(=O)(=O)c3ccc4c(c3)C(=O)C(C(=O)CN3CCCC3=O)C4=O)cc2C1=O (centres unmarked) [Example 184, 5-({1,3-dioxo-2-[2-(2-oxopyrrolidin-1-yl)acetyl]-2,3-dihydro-1H-inden-5-yl}sulfonyl)-2-[2-(2-oxopyrrolidin-1-yl)acetyl]-2,3-dihydro-1H-indene-1,3-dione] | 87% | 95% | 2 µM |  | 
19 | O=C(c1ccc2c(c1)C(=O)C(C(=O)C1CCOC1)C2=O)c1ccc2c(c1)C(=O)C(C(=O)C1CCOC1)C2=O (centres unmarked) [Example 146, 5-[1,3-dioxo-2-(oxolane-3-carbonyl)-2,3-dihydro-1H-indene-5-carbonyl]-2-(oxolane-3-carbonyl)-2,3-dihydro-1H-indene-1,3-dione] | 44% | 40% |  |  | 
20 | COC(=O)[C@H]1CCCC[C@H]1C(=O)C1C(=O)c2ccc(S(=O)(=O)c3ccc4c(c3)C(=O)C(C(=O)[C@@H]3CCCC[C@@H]3C(=O)OC)C4=O)cc2C1=O (stereo partly drawn) [Example 257, methyl (1S,2R)-2-[5-({2-[(1R,2S)-2-(methoxycarbonyl)cyclohexanecarbonyl]-1,3-dioxo-2,3-dihydro-1H-inden-5-yl}sulfonyl)-1,3-dioxo-2,3-dihydro-1H-indene-2-carbonyl]cyclohexane-1-carboxylate] |  |  |  | 7% | 37%
